Source: article PMC12610274, “Identification of Marrubiin as a Cathepsin C Inhibitor for Treating Rheumatoid Arthritis” (Molecules, 2025)

Tests used:
CTSK = molecular target: T1, CTSK (Homo sapiens, UniProt P43235); assay: Human recombinant cathepsins isolated enzyme assay, CTSK; type: biochemical; settings: read-out: CTSK Enz (IC50: μM)
T1 construct: purchased R&D Systems
Description: (§1) The protocol for evaluating the inhibitory potency of compounds against other cathepsins referred to the CTSC activity assay. Recombinant human CTSB, CTSL, CTSS and CTSK for testing were also purchased from R&D Systems Biotechnology Company. Recombinant human Cat G, NE, and PR3 For testing were purchased from MedChemExpress. A multi-functional microplate reader was used to measure the absorption of Z-Leu-Arg-AMC at excitation/emission wavelengths of 380/460 nm to assess the activity changes of CTSB and CTSL, while the absorption of MCA-Arg-Pro-Lys-Pro-Val-Glu-NVAL-Trp-Arg-Lys(DNP)-NH2 at 320/405 nm was measured to evaluate the activity changes of CTSS and CTSK. Different assay buffers were prepared for diluting samples and measuring the activities of specific NSPs: a buffer containing 50 mM Tris and 750 mM NaCl (pH 7.4) was used for NE and PR3; a buffer containing 50 mM Tris, 750 mM NaCl, 5 mM EDTA (pH 7.4) was used for Cat G; and a buffer containing 25 mM MES, 50 mM NaCl, 5 mM DTT (pH 6.0) was used for CTSC. Synthetic substrates were employed to assess the activities of NSPs and CTSC: H-Gly-Arg-AMC for CTSC, N-MeSuc-Ala-Ala-Pro-Val-pNA for NE, aminobenzoyl-Val-Ala-Asp-Cys-Ala-Asp-Gln-ethylenediamine 2,4-dinitrophenyl for PR3, and N-Suc-Ala-Ala-Pro-Phe-pNA for Cat G. Each group of tests was independently repeated at least 3 times, and IC50 values were calculated using SPSS 10.0.

Cat G [1] = assay: Cat G activity in blood and bone marrow of mice; type: in vivo, C57BL/6 mice; settings: 30 mg/kg daily gavage, 7 days
Procedure: A total of 25 C57BL/6 mice (6–8 weeks old, weighing approximately 20 g, with equal numbers of males and females) were randomly divided into five groups. Mice in the compound-treated groups were orally administered the compound once daily at doses of 0.3, 3, and 30 mg/kg for 7 consecutive days. […] Mice in the normal group were given an equal volume of normal saline at the same time points. The body weight, death rate, and behavior were observed and recorded daily for one week. After 7 days, bone marrow and blood samples were collected from the mice and lysed using 8% Triton X-100 buffer. The lysates were stored at −20 °C until testing. The activity assays for CTSC and NSPs were performed as described above. The mice were anesthetized and the tissues were taken for H&E staining.

CTSC = CTSC (Homo sapiens, UniProt P53634); assay: Human recombinant CTSC isolated enzyme assay; type: biochemical; parameters: purchased R&D Systems; settings: human recombinant CTSC, cell-free, 12-point dose-response; read-out: CTSC Enz (IC50: nM)
CTSC, sequence (P53634 25-134 limits assumed): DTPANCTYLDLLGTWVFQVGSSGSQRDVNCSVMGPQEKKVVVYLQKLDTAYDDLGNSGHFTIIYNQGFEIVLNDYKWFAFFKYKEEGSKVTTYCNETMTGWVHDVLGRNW
CTSC, sequence (P53634 231-394 limits assumed): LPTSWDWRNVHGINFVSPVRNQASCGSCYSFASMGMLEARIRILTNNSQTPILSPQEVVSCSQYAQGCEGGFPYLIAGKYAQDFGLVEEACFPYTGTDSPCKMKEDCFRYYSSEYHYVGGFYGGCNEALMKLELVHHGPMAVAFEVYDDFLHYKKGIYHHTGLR
CTSC, sequence (P53634 395-463 limits assumed): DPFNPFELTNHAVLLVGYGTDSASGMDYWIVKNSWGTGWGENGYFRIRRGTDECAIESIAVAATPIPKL
Procedure: Both recombinant CTSL and CTSC for in vitro cell-free-based enzymatic activity assay can be purchased from R&D Systems (Minneapolis, MN, USA), a biotechnology company. According to the standardized procedures and material ratios provided by R&D Systems, prepare the activation solution (25 mM MES + 5 mM DTT, pH 6.0) and the assay solution (25 mM MES + 50 mM NaCl + 5 mM DTT, pH 6.0) in advance for later use. Dilute the detection substrate H-Gly-Arg-AMC to a 200 µM solution with the assay solution for standby. Prepare the working solution of compounds to be tested using the assay solution, with the concentration of working solution being 10 times the final test concentration. Dilute CTSC and CTSL, respectively, with cold activation solution. Thoroughly mix the two activation solutions containing the proteins to achieve final concentrations of 300 nM for CTSL and 440 nM for CTSC. After co-incubation for 1 h, the activated CTSC treated with CTSL can be used for the enzymatic activity inhibition efficacy test of compounds. Dilute the activated CTSC to 4.4 nM with cold assay buffer. Incubate 4 μL of the activated CTSC with 1 μL of the compound working solution (test group) or 1 μL of blank assay solution (control group) at room temperature for 3 h. Then, add 5 μL of the detection substrate to achieve a final concentration of 100 μM. Mix 5 µL each of the assay solution and the substrate solution as the blank group. After 1 h, the absorbance of detection substrate was measured using a multifunctional microplate reader at excitation/emission wavelengths of 380 nm/460 nm. The inhibitory efficacy of molecules on enzyme activity was calculated based on the absorbance difference between test group and control group. […] Each group of tests mentioned above was independently repeated at least 3 times, and IC50 values were calculated using SPSS 10.0.

Cat G [2] = molecular target: T2, Cat G (Homo sapiens, UniProt P08311); assay: Recombinant NSPs isolated enzyme assay, Cat G; type: biochemical; settings: read-out: Cat G Enz (IC50: μM)
T2 construct: purchased MedChemExpress
T2 sequence (P08311 21-255): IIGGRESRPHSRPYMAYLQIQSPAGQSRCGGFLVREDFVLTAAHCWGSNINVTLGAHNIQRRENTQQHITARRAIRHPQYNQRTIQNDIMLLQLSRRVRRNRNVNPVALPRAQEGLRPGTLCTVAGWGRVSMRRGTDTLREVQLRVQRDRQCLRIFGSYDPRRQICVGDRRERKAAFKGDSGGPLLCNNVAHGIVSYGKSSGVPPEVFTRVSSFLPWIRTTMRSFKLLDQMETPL
Description: as §1

[3] = tested on: LPS-induced NO release by RAW 264.7 macrophages; assay: LPS-induced NO release, Griess reagent; type: cell-based; settings: Mus musculus, RAW264.7; LPS-stimulated RAW 264.7, 24 h
Procedure: RAW264.7 cells in the logarithmic growth phase were counted and diluted to a concentration of 6 × 10^4 cells/mL. After thorough mixing, the cell suspension was seeded into 48-well plates and incubated in a humidified atmosphere containing 5% CO2 at 37 °C. Following 24 h of incubation, the culture medium was carefully aspirated, and the cells were gently washed with phosphate-buffered saline. […] After 1 h of pre-incubation, 30 μL of lipopolysaccharide (1 μg/mL) was added to each well except for the blank control group, which remained unstimulated. Following an additional 24 h incubation under identical conditions, the culture supernatants were collected to assess NO production using the Griess reagent assay. Concentrations of pro-inflammatory cytokines and chemokines were determined using commercially available ELISA kits according to the protocols.

T1 sequence (P43235 115-329): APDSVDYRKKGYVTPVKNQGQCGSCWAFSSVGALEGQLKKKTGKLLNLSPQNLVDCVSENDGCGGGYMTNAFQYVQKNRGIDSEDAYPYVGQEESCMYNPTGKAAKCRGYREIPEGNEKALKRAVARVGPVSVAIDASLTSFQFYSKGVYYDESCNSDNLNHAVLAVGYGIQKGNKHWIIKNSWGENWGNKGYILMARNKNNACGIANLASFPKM

## C[C@@H]1C[C@H]2OC(=O)[C@@]3(C)CCC[C@@](C)([C@@H]23)[C@@]1(O)CCc1ccoc1 [Marrubiin, marrubiin]
CTSK
  IC50: > 5 µM
Cat G [1]; blood
  remaining activity rate of Cat G: ~35.5%
Cat G [1]; bone marrow
  remaining activity rate of Cat G: ~40.2%
CTSC
  IC50: 57.5 ± 1.3 nM
Cat G [2]
  IC50: > 10 µM
[3]
  IC50: 830 nM
